Entries after “also recorded” stand apart in the source; their conditions may differ.
Experiments:
HEK-Blue hTLR4 cells = experiment: Agonist-induced TLR activation, HEK-Blue hTLR4 reporter cells; type: cell-based, human; conditions: dose-dependent, presence or absence of FBS, 24 hours
From the text: (§1) We further studied nanoparticle-mediated inhibition of proinflammatory molecules-induced TLR activation by using HEK-Blue human TLR (hTLR) cells.

calf thymus DNA = experiment: PicoGreen DNA-binding assay; conditions: TE buffer, different material:DNA mass ratios, unbound PicoGreen-labeled DNA
Experimental: The fluorescence intensity of the unbound PicoGreen®-DNA complex at 520 nm was measured with a multiwell plate reader via excitation at 490 nm.
Inflammatory circulating cfDNA released by PTT-damaged host cells might cause a severe inflammatory response, which may be mitigated by the scavenging of cfDNA. Therefore, to interrogate the cfDNA scavenging ability of the various nanoparticles, the inventors investigated the calf thymus DNA binding affinity of the nanoparticles in Tris-EDTA (TE) buffer with and without 10% FBS by measuring unbound PicoGreen®-labeled DNA (FIGS. 5D and 5E).

HEK-Blue hTLR3 cells = experiment: Agonist-induced TLR activation, HEK-Blue hTLR3 SEAP reporter cells; type: cell-based, human; conditions: dose-dependent, presence or absence of FBS, 24 hours
Experimental: (§2) HEK-Blue hTLR3, hTLR8, and hTLR9 cells were obtained by co-transfecting the hTLR gene and an optimized secreted embryonic alkaline phosphatase (SEAP) reporter gene into HEK293 cells. HEK-Blue hTLR cells were cultured and maintained in DMEM with 10% FBS and 1% penicillin-streptomycin. […] After 24 hours, the supernatants were collected and mixed with Quanti-Blue™. TLR activation associated with SEAP activity was determined with a multiwell plate reader by measuring the OD at 620 nm. The cell densities (in a 96 well plate) used were 8×10^4 cells/well for HEK-Blue hTLR9 cells, 5×10^4 cells/well for HEK-Blue hTLR3 cells, and 4×10^4 cells/well for HEK-Blue hTLR8 cells.
as §1
(§3) HEK-Blue hTLR3, hTLR8 and hTLR9 were obtained by co-transfecting the hTLR gene and an optimized secreted embryonic alkaline phosphatase (SEAP) reporter gene into HEK293 cells. HEK-Blue hTLR cells were cultured and maintained in DMEM with 10% FBS and 1% penicillin-streptomycin. […] TLR activation associated with SEAP activity was determined with a multiwell plate reader by measuring the OD at 620 nm.

COX-2 mRNA = COX-2 mRNA expression (RT-qPCR) in activated RAW264.7 cells; type: cell-based, murine; conditions: 24 h
From the text: (§4) TLRs recognize a variety of PAMPs and DAMPs that induce the secretion of several proinflammatory cytokines. Inhibiting TLR activation and blocking DAMP-TLR interactions is a promising strategy for alleviating PTT-induced inflammation and reducing tumor regeneration and metastasis.

HEK-Blue hTLR9 cells = experiment: Agonist-induced TLR activation, HEK-Blue hTLR9 SEAP reporter cells; type: cell-based, human; conditions: dose-dependent, presence or absence of FBS, 24 hours
Experimental: as §2, §1, §3

4T1 tumor = experiment: 4T1 metastasis tumor model, treatment with or without photothermal therapy; type: in vivo, Balb/c mice
TNF-α = TNF-α production by activated RAW264.7 macrophages; type: cell-based, murine; conditions: 24 h, 50 and 100 μg/ml
From the text: as §4

[1] = without laser, intravenous three times per week

Structure (SMILES) | LPS-induced activation of HEK-Blue hTLR4 cells (HEK-Blue hTLR4 cells) | DNA binding affinity (calf thymus DNA) | poly (I:C)-induced activation of HEK-Blue hTLR3 cells (HEK-Blue hTLR3 cells) | COX-2 mRNA expression (COX-2 mRNA; CpG-activated RAW264.7 cells) | COX-2 mRNA expression (COX-2 mRNA; LPS-activated RAW264.7 cells) | CpG-induced activation of HEK-Blue hTLR9 cells (HEK-Blue hTLR9 cells) | survival rates of mice (4T1 tumor; after PTT) | tumor recurrence and metastasis (4T1 tumor; after laser (PTT)) | body weight of the mice (4T1 tumor; after laser (PTT), intravenous three times per week) | cytokine levels (IL-6, TNF-α and IL-1 beta) in mouse serum, ELISA (4T1 tumor; after laser (PTT), versus PBS and laser groups) | body weight of the mice (4T1 tumor; [1]) | size of the tumors / tumor suppression (4T1 tumor; [1]) | TNF-α production (TNF-α; CpG-activated RAW264.7 cells) | TNF-α production (TNF-α; LPS-activated RAW264.7 cells)
COc1cc(/C=C/C(=O)CC(=O)/C=C/c2ccc(O)c(OC)c2)ccc1O [curcumin] | negligible inhibitory effect | negligible DNA binding ability | negligible inhibitory effect | alleviated the generation of COX-2 mRNA in CpG-induced RAW264.7 cells to some extent | no obvious inhibitory effect | negligible inhibitory effect | greatly improved | inhibited tumor recurrence and metastasis | increased body weight | clearly lower | did not show obvious effects | did not show obvious effects; also recorded: small effect | slightly reduced | only slightly reduced
O=C(OC[C@H]1O[C@@H](OC(=O)c2cc(O)c(O)c(OC(=O)c3cc(O)c(O)c(O)c3)c2)[C@H](OC(=O)c2cc(O)c(O)c(OC(=O)c3cc(O)c(O)c(O)c3)c2)[C@@H](OC(=O)c2cc(O)c(O)c(OC(=O)c3cc(O)c(O)c(O)c3)c2)[C@@H]1OC(=O)c1cc(O)c(O)c(OC(=O)c2cc(O)c(O)c(O)c2)c1)c1cc(O)c(O)c(OC(=O)c2cc(O)c(O)c(O)c2)c1 [tannic acid] |  | can bind to DNA |  |  |  |  |  |  |  |  |  |  |  | 
